Reference: US6608082B1, “Treatment of erectile dysfunction using isoquinoline compound melanocortin receptor ligands” (Lion Bioscience AG, priority 1998, dated 2003)

Target: T1, MCR-1 (Homo sapiens, UniProt Q01726)
T1 construct: expressed in transfected cells; host or cells: HEK 293
Assay: Melanocortin receptor binding assay, competition with 125I-HP 467, HEK 293 cells expressing hMCR-1
Conditions: for % Disp. of 125I-HP 467 (first of duplicate) / % Disp. of 125I-HP 467 (second of duplicate): 10 μM isoquinoline compound; for % Disp. of 125I-HP 467 (first of duplicate): HEK 293 cells expressing MCR-1, duplicate 1; for % Disp. of 125I-HP 467 (second of duplicate): HEK 293 cells expressing MCR-1, duplicate 2; for IC50: competition with 125I-HP 467, HEK 293 cells expressing MCR-1, read-out: MC-1 IC50; for effectiveness as MC receptor ligand: binding to MC receptors, Table 1
Summary of the method: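 Intact-cell competition binding, 2.5 hr at 37 °C, in PBS/10% calf serum/1 mM CaCl2; hMCR-4 cells at 4×10^3 per tube, hMCR-1 cells at 2×10^4 per tube. Filtration on BSA/CaCl2-soaked GF/B, cold 50 mM Tris pH 7.4 washes, scintillation count.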

T1 sequence (Q01726 whole entry): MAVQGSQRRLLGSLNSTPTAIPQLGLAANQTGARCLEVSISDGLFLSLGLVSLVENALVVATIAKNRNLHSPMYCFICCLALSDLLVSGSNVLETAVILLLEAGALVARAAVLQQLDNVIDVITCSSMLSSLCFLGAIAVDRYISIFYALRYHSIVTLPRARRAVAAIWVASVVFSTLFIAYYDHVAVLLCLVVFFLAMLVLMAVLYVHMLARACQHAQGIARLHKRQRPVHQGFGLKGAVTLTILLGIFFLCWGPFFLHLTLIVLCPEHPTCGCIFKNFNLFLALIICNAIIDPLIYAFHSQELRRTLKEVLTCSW

Row | % Disp. of 125I-HP 467 (first of duplicate) [%] | % Disp. of 125I-HP 467 (second of duplicate) [%] | IC50 [nM] | Compound | effectiveness as MC receptor ligand
1 | 67.3 | 60.6 | – | CNC(CN)CCCCN1Cc2ccccc2C(CNC2CCCCC2)C1c1ccc(OC)c(F)c1 (centres unmarked) [TRG 2405-220] | –
2 | 65.2 | 62.7 | – | CNC(CN)CCCCN1Cc2ccccc2C(CNC2CCCCC2)C1c1cccc(F)c1 (centres unmarked) [TRG 2405-221] | –
3 | 34.3 | 39.3 | – | CNC(CN)CCCCN1Cc2ccccc2C(CNC2CCCCC2)C1c1ccoc1 (centres unmarked) [TRG 2405-222] | –
4 | 33.6 | 21.2 | – | CNC(CN)CCCCN1Cc2ccccc2C(CNC2CCCCC2)C1c1cccc(O)c1 (centres unmarked) [TRG 2405-223] | –
5 | 69.8 | 69.4 | – | CNC(CN)CCCCN1Cc2ccccc2C(CNC2CCCCC2)C1c1cccc(OC)c1 (centres unmarked) [TRG 2405-225] | –
6 | 78.2 | 74.6 | – | CNC(CN)CCCCN1Cc2ccccc2C(CNC2CCCCC2)C1c1cccc(C)c1 (centres unmarked) [TRG 2405-227] | –
7 | 58.6 | 48.8 | – | CNC(CN)CCCCN1Cc2ccccc2C(CNC2CCCCC2)C1c1cccc([N+](=O)[O-])c1 (centres unmarked) [TRG 2405-229] | –
8 | 89.2 | 84.2 | – | CNC(CN)CCCCN1Cc2ccccc2C(CNC2CCCCC2)C1c1cccc(Oc2ccccc2)c1 (centres unmarked) [TRG 2405-230] | –
9 | 25 | 18.9 | – | CNC(CN)CCCCN1Cc2ccccc2C(CNC2CCCCC2)C1c1cccnc1 (centres unmarked) [TRG 2405-231] | –
10 | 36.1 | 34.2 | – | CNC(CN)CCCCN1Cc2ccccc2C(CNC2CCCCC2)C1c1cnc2ccccc2c1 (centres unmarked) [TRG 2405-232] | –
11 | 52.9 | 37.7 | – | CNC(CN)CCCCN1Cc2ccccc2C(CNC2CCCCC2)C1c1ccc(OCCCN(C)C)cc1 (centres unmarked) [TRG 2405-234] | –
12 | 62.2 | 47.8 | – | CNC(CN)CCCCN1Cc2ccccc2C(CNC2CCCCC2)C1c1ccc(SC)cc1 (centres unmarked) [TRG 2405-237] | –
13 | 69.6 | 66.5 | – | CNC(CN)CCCCN1Cc2ccccc2C(CNC2CCCCC2)C1c1ccc(OC)cc1 (centres unmarked) [TRG 2405-240] | –
14 | 29.7 | 22.5 | – | CNC(CN)CCCCN1Cc2ccccc2C(CNC2CCCCC2)C1c1ccc(CN)cc1 (centres unmarked) [TRG 2405-244] | –
15 | 56.6 | 56.8 | – | CNC(CN)CCCCN1Cc2ccccc2C(CNC2CCCCC2)C1c1ccc(F)cc1 (centres unmarked) [TRG 2405-245] | –
16 | 83 | 85.3 | – | CNC(CN)CCCCN1Cc2ccccc2C(CNC2CCCCC2)C1c1ccc(C(C)C)cc1 (centres unmarked) [TRG 2405-247] | –
17 | 82.3 | 83 | – | CNC(CN)CCCCN1Cc2ccccc2C(CNC2CCCCC2)C1c1ccc(C)cc1 (centres unmarked) [TRG 2405-249] | –
18 | 49.4 | 46.9 | – | CNC(CN)CCCCN1Cc2ccccc2C(CNC2CCCCC2)C1c1ccc([N+](=O)[O-])cc1 (centres unmarked) [TRG 2405-251] | –
19 | 24.9 | 29.1 | – | CNC(CN)CCCCN1Cc2ccccc2C(CNC2CCCCC2)C1c1ccncc1 (centres unmarked) [TRG 2405-254] | –
20 | 29.2 | 25.3 | – | CNC(CN)CCCCN1Cc2ccccc2C(CNC2CCCCC2)C1c1ccnc2ccccc12 (centres unmarked) [TRG 2405-255] | –
21 | 80.7 | 81.9 | – | CNC(CN)CCCCN1Cc2ccccc2C(CNC2CCCCC2)C1c1ccc(C)s1 (centres unmarked) [TRG 2405-258] | –

Row | % Disp. of 125I-HP 467 (first of duplicate) [%] | % Disp. of 125I-HP 467 (second of duplicate) [%] | IC50 [nM] | Compound | effectiveness as MC receptor ligand
22 | 42.5 | 46.1 | – | CNC(CN)CCCCN1Cc2ccccc2C(CNC2CCCCC2)C1c1ccc(C)o1 (centres unmarked) [TRG 2405-259] | –
23 | 45.9 | 47.8 | – | CNC(CN)CCCCN1Cc2ccccc2C(CNC2CCCCC2)C1c1cccc(C)n1 (centres unmarked) [TRG 2405-261] | –
24 | 61.6 | 65.3 | – | CCn1c2ccccc2c2cc(C3C(CNC4CCCCC4)c4ccccc4CN3CCCCC(CN)NC)ccc21 (centres unmarked) [TRG 2405-263] | –
25 | 35 | 39.4 | – | CNC(CN)CCCCN1Cc2ccccc2C(CNC2CCCCC2)C1c1cc2c3c(c1O)CCCN3CCC2 (centres unmarked) [TRG 2405-264] | –
26 | 55.9 | 57.7 | – | CNC(CN)CCCCN1Cc2ccccc2C(CNC2CCCCC2)C1c1ccc(Br)o1 (centres unmarked) [TRG 2405-269] | –
27 | 41.1 | 33.7 | – | CNC(CN)CCCCN1Cc2ccccc2C(CNC2CCCCC2)C1c1nccs1 (centres unmarked) [TRG 2405-270] | –
28 | – | – | 120 | CCCCNc1ccc(C2C(CN)c3ccccc3CN2CCCC(CN)NCCc2ccc(Br)cc2)cc1 (centres unmarked) [TRG 2409-222] | –
29 | – | – | 100 | CCCCNc1ccc(C2C(CN)c3ccccc3CN2CCCC(CN)NCc2ccc(OC)cc2)cc1 (centres unmarked) [TRG 2409-226] | –
30 | – | – | 170 | CCCCNc1ccc(C2C(CN)c3ccccc3CN2CCCC(CN)NCCc2ccc3ccccc3c2)cc1 (centres unmarked) [TRG 2409-227] | –
31 | – | – | 230 | CCCCNc1ccc(C2C(CN)c3ccccc3CN2CCCC(CN)NCCN)cc1 (centres unmarked) [TRG 2409-229] | –
32 | – | – | 550 | CCNC(CN)CCCCN1Cc2ccccc2C(CNCCc2ccccc2)C1c1ccc(-c2ccccc2)cc1 (centres unmarked) [TRG 2411-2] | –
33 | – | – | 880 | NC[C@H](CCCCN1Cc2ccccc2C(CNCCc2ccccc2)C1c1ccc(-c2ccccc2)cc1)NCCc1ccccc1 (some centres unmarked) [TRG 2411-3] | –
34 | – | – | 700 | CNCCNC(CN)CCCCN1Cc2ccccc2C(CNCCc2ccccc2)C1c1ccc(-c2ccccc2)cc1 (centres unmarked) [TRG 2411-4] | –
35 | – | – | 790 | NCCN[C@H](CN)CCCCN1Cc2ccccc2C(CNCCc2ccccc2)C1c1ccc(-c2ccccc2)cc1 (some centres unmarked) [TRG 2411-5] | –
36 | – | – | 470 | CNC(C)CNC(CN)CCCCN1Cc2ccccc2C(CNCCc2ccccc2)C1c1ccc(-c2ccccc2)cc1 (centres unmarked) [TRG 2411-6] | –
37 | – | – | 630 | NCC(CCCCN1Cc2ccccc2C(CNCCc2ccccc2)C1c1ccc(-c2ccccc2)cc1)NCCO (centres unmarked) [TRG 2411-7] | –
38 | – | – | 760 | CNC(CNC(CN)CCCCN1Cc2ccccc2C(CNCCc2ccccc2)C1c1ccc(-c2ccccc2)cc1)Cc1ccccc1 (centres unmarked) [TRG 2411-8] | –
39 | – | – | 1100 | COCCNC(CN)CCCCN1Cc2ccccc2C(CNCCc2ccccc2)C1c1ccc(-c2ccccc2)cc1 (centres unmarked) [TRG 2411-10] | –
40 | – | – | 730 | NCC(CCCCN1Cc2ccccc2C(CNCCc2ccccc2)C1c1ccc(-c2ccccc2)cc1)NCC1CCCCC1 (centres unmarked) [TRG 2411-12] | –
41 | – | – | 1360 | NCC(CCCCN1Cc2ccccc2C(CNCCc2ccccc2)C1c1ccc(-c2ccccc2)cc1)NCc1ccccc1 (centres unmarked) [TRG 2411-13] | –
42 | – | – | 460 | CCNC(CN)CCCCN1Cc2ccccc2C(CNC2CCCCC2)C1c1ccc(-c2ccccc2)cc1 (centres unmarked) [TRG 2411-14] | –

Row | % Disp. of 125I-HP 467 (first of duplicate) [%] | % Disp. of 125I-HP 467 (second of duplicate) [%] | IC50 [nM] | Compound | effectiveness as MC receptor ligand
43 | – | – | 900 | NCC(CCCCN1Cc2ccccc2C(CNC2CCCCC2)C1c1ccc(-c2ccccc2)cc1)NCCO (centres unmarked) [TRG 2411-16] | –
44 | – | – | 390 | CNC(CNC(CN)CCCCN1Cc2ccccc2C(CNC2CCCCC2)C1c1ccc(-c2ccccc2)cc1)Cc1ccccc1 (centres unmarked) [TRG 2411-17] | –
45 | – | – | 490 | COCCNC(CN)CCCCN1Cc2ccccc2C(CNC2CCCCC2)C1c1ccc(-c2ccccc2)cc1 (centres unmarked) [TRG 2411-19] | –
46 | – | – | 590 | NCC(N)CCCCN1Cc2ccccc2C(CN)C1c1ccc(-c2ccccc2)cc1 (centres unmarked) [TRG 2411-23] | –
47 | – | – | 530 | CCNC(CN)CCCCN1Cc2ccccc2C(CN)C1c1ccc(-c2ccccc2)cc1 (centres unmarked) [TRG 2411-24] | –
48 | – | – | 350 | NCC(CCCCN1Cc2ccccc2C(CN)C1c1ccc(-c2ccccc2)cc1)NCCc1ccccc1 (centres unmarked) [TRG 2411-25] | –
49 | – | – | 660 | NCCNC(CN)CCCCN1Cc2ccccc2C(CN)C1c1ccc(-c2ccccc2)cc1 (centres unmarked) [TRG 2411-27] | –
50 | – | – | 970 | NCC1c2ccccc2CN(CCCCC(CN)N2CCCC2)C1c1ccc(-c2ccccc2)cc1 (centres unmarked) [TRG 2411-31] | –
51 | – | – | 550 | COCCNC(CN)CCCCN1Cc2ccccc2C(CN)C1c1ccc(-c2ccccc2)cc1 (centres unmarked) [TRG 2411-32] | –
52 | – | – | 350 | NCC(CCCCN1Cc2ccccc2C(CN)C1c1ccc(-c2ccccc2)cc1)NCC1CCCCC1 (centres unmarked) [TRG 2411-34] | –
53 | – | – | 130 | CCNc1ccc(C2C(CNCCc3ccccc3)c3ccccc3CN2CCCCC(N)CN)cc1 (centres unmarked) [TRG 2411-36] | –
54 | – | – | 130 | CCNc1ccc(C2C(CNCCc3ccccc3)c3ccccc3CN2CCCCC(CN)NCC)cc1 (centres unmarked) [TRG 2411-37] | –
55 | – | – | 220 | CCNc1ccc(C2C(CNCCc3ccccc3)c3ccccc3CN2CCCCC(CN)NCCC2CCCCC2)cc1 (centres unmarked) [TRG 2411-47] | –
56 | – | – | 300 | CCNc1ccc(C2C(CNCCc3ccccc3)c3ccccc3CN2CCCCC(CN)NCCN)cc1 (centres unmarked) [TRG 2411-48] | –
57 | – | – | 220 | CCNc1ccc(C2C(CNC3CCCCC3)c3ccccc3CN2CCCCC(CN)NCC)cc1 (centres unmarked) [TRG 2411-49] | –
58 | – | – | 80 | CCCCNC(CN)CCCCN1Cc2ccccc2C(CNC2CCCCC2)C1c1ccc(NCC)cc1 (centres unmarked) [TRG 2411-50] | particularly effective MC receptor ligands
59 | – | – | 130 | CCNc1ccc(C2C(CNC3CCCCC3)c3ccccc3CN2CCCCC(CN)NCc2ccc(OC)cc2)cc1 (centres unmarked) [TRG 2411-56] | –
60 | – | – | 370 | CCNc1ccc(C2C(CN)c3ccccc3CN2CCCCC(N)CN)cc1 (centres unmarked) [TRG 2411-59] | –
61 | – | – | 50 | CCNc1ccc(C2C(CN)c3ccccc3CN2CCCCC(CN)NCC)cc1 (centres unmarked) [TRG 2411-60] | particularly effective MC receptor ligands
62 | – | – | 110 | CCCCNC(CN)CCCCN1Cc2ccccc2C(CN)C1c1ccc(NCC)cc1 (centres unmarked) [TRG 2411-61] | –
63 | – | – | 480 | CCNc1ccc(C2C(CN)c3ccccc3CN2CCCC[C@@H](CN)NCCc2ccc(Br)cc2)cc1 (some centres unmarked) [TRG 2411-64] | –
